The values that follow come from patent US12370193B2, “Method of inhibiting TREM-1” (UNIVERSITY OF FLORIDA RESEARCH FOUNDATION, INCORPORATED, priority 2019, dated 2025).

One data set concerns TH17 cells. Conditions: Chang et al. study; cited from earlier work.
The subject of data set [1] is collagen-induced arthritis. The following applies: Chang et al. (2014); cited from earlier work.
Data set [2] has as its system collagen-induced arthritis. Briefly: Collagen-induced arthritis (CIA) mouse model. The following applies: for enlargement of the liver: CIA mice, 20 mg/kg.
Description: Clinical score was monitored every day after boosting during 18 days. […] The dosage of all compounds was identical in each group.
Briefly, DBA/1J mice were injected with chicken type II collagen on day 1 and then each animal received a boost injection of collagen on Day 21. Compound treatment, initiated on day 3-post boost injection, was administered intraperitoneally at 20 mg/kg twice-a-day for a total of 16 days. […] Mice: All mice were maintained in a specific pathogen-free environment in accordance with institutional protocol. […] Female DBA/1J mice were purchased from Taconic. CIA was induced in 8 weeks as previously described^40.
Another data set deals with RORβ. Briefly: Gal4-RORβ co-transfection promoter-reporter assay. The data set is classed as cell-based. The following applies: Gal4 assay format. The procedure: (§1) Reporter gene assays: Twenty-four hours before transfection, HEK293T cells were plated in 96-well plates at a density of 15×10^3 cells per well. UAS:luciferase reporter and Ga14-RORa, Gal4-RORb, Gal4-RORγ, Gal4-LXRα, or Gal4 PPARγ DNA co-transfections were performed using X-tremeGENE 9 (Roche). Twenty-four hours after transfection, the cells were treated with vehicle or compound. Twenty-four hours after treatment, the luciferase activity was measured using the Dual-Glo luciferase assay system (Promega). Results were analyzed using GraphPad Prism software.
For orientation: In a reporter assay the amount or activity of a reporter protein is the signal.

Data set [3] deals with TREM-1. The data set is described as follows: TREM-1 gene expression in LPS-stimulated RAW264.7 cells (RNA sequencing, qPCR). The data set is classed as cell-based, mouse. Conditions: 26 hr exposure. On the procedure: (§2) FIG. 2B are graphs showing TREM-1 gene expression by q-PCR. […] All experiments were performed with 3 biological replicates and the median value of TREM-1 fluorescence was represented by the graph on the bottom.
Quantitative RT-PCR: Total RNA was extracted from EL4 or RAW264.7 cells using RNeasy Plus Micro Kit (Qiagen) and the RNA was reverse transcribed using the ABI reverse transcription kit (Applied Biosystems/Thermo Fisher Scientific, Waltham MA). Quantitative PCR was performed with a 7900HT Fast Real Time PCR System (Applied Biosystems) using SYBR green (Roche).
mRNA sequencing analysis: RAW264.7 cells RNA extraction protocol for RNA seq was derived from Qiagen Kit-74106. Total RNA was quantified using the Qubit 2.0 Fluorometer (Invitrogen, Carlsbad, CA) and run on the Agilent 2100 Bioanalyzer (Agilent Technologies, Santa Clara, CA) for quality assessment. RNA samples of good quality with RNA Integrity Number (RIN)>8.0 were further processed. A RNase-free working environment was maintained and RNase-free tips, Eppendorf tubes and plates were utilized for the subsequent steps. Messenger RNA was selectively isolated from total RNA (300 ng input) using poly-T oligos attached to magnetic beads and converted to sequence-ready libraries using the TruSeq stranded mRNA sample prep protocol (Cat. #: RS-122-2101, Illumina, San Diego, CA). The final libraries were validated on the bioanalyzer DNA chips and qPCR quantified using primers that recognize the illumina adaptors. The libraries were then pooled at equimolar ratios, quantified using qPCR and loaded onto the NextSeq 500 flow cell at 1.8 pM final concentration. They were sequenced using the high-output, paired-end, 75-bp chemistry. Demultiplexed and quality filtered raw reads (fastq) generated from the NextSeq 500 were trimmed (adaptor sequences) using Flexbar 2.4 and aligned to the mouse reference database (mm9) using TopHat version 2.0.9 (Trapnell et al., 2009). HTseq-count version 0.6.1 was used to generate gene counts and differential gene expression analysis was performed using Deseq2 (Anders and Huber, 2010).
In general terms: Real-time PCR tracks product formation cycle by cycle.

The test system of data set [4] is TREM-1. Briefly: TREM-1 surface expression by FACS in LPS-stimulated RAW264.7 cells. The data set is classed as cell-based, mouse. The following applies: 50 hr incubation. On the procedure:
as §2
Flow cytometry and antibodies: For the analysis of macrophage activation, RAW264.7 cells (American Type Culture Collection) were pre-incubated with 5 μM 1903 for 18 h then stimulated with 1 μg/mL LPS (Escherichia coli 0127:B8, Sigma-Aldrich (St. Louis, MO)) for 6 h. RAW264.7 cells were stained with APC conjugated anti-TREM-1 antibody (eBioscience). Cell sorting was performed using LSRII (BD Bioscience).
In general terms: A flow cytometer gives signals particle by particle.

For a further data set, the system named is EL4 cells. Briefly: RORγ target gene expression in PMA/ionomycin stimulated EL4 cells. The following applies: PMA and ionomycin, compound at 10 μM. The data set is classed as cell-based. The source says: FIG. 1D is a graph showing PPARγ target genes (aP2 and CD36) expression in OP9 cells with and without MDI (IBMX, dexamethasone, insulin) treatment. […] Specific residues driving the interaction labelled and shown as sticks as well. […] Quantitative RT-PCR: Total RNA was extracted from EL4 or RAW264.7 cells using RNeasy Plus Micro Kit (Qiagen) and the RNA was reverse transcribed using the ABI reverse transcription kit (Applied Biosystems/Thermo Fisher Scientific, Waltham MA). Quantitative PCR was performed with a 7900HT Fast Real Time PCR System (Applied Biosystems) using SYBR green (Roche).

For another data set, the system named is RORα. Briefly: Gal4-RORα co-transfection promoter-reporter assay. The data set is classed as cell-based. Conditions: Gal4 assay format. The procedure: as §1
In a further data set the target is T1, RORγ (Homo sapiens, UniProt P51449).
T1 sequence (P51449 269-518 limits assumed): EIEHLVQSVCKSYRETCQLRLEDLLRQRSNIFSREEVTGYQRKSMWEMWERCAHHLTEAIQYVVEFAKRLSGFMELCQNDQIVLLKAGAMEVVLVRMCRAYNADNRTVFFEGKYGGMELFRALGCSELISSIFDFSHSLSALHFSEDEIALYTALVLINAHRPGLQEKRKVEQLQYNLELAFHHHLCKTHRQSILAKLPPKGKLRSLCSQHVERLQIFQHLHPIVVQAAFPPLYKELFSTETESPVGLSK
The data set is described as follows: Gal4-RORγ co-transfection promoter-reporter assay. The following applies: cell-based promoter-reporter Gal4 assay format, HEK293T cells.

Another data set has as its target T2, LXRα (Homo sapiens, UniProt Q13133).
T2 sequence (Q13133 209-447 limits assumed): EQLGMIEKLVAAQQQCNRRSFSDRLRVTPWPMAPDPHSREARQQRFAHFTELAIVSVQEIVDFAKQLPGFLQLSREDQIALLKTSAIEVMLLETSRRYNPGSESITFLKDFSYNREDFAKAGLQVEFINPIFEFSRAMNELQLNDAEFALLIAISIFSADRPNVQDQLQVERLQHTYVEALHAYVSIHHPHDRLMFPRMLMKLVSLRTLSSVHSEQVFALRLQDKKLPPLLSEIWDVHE
The data set is described as follows: Gal4-LXRα co-transfection promoter-reporter assay. The data set is classed as cell-based. The following applies: HEK293T cells, read-out: LXR agonist activity EC50.
Source text: FIGS. 1A to 1E: Pan modulator with poly-pharmacology. […] FIG. 1D is a graph showing PPARγ target genes (aP2 and CD36) expression in OP9 cells with and without MDI (IBMX, dexamethasone, insulin) treatment. […] SR1903 is represented as orange sticks while PPARγ, RORγ, and LXRβ are depicted as blue ribbons respectively. Specific residues driving the interaction labelled and shown as sticks as well. […] FIG. 1F are graphs showing RORγ target genes (IL17A and IL17F) expression in EL4 cells.
as §1

Consider `OC(c1ccc(-c2ccc(CN3CCN(Cc4ccncc4)CC3)cc2)c(F)c1)(C(F)(F)F)C(F)(F)F` [SR2211], for which, in the data set on TH17 cells, the “IL-17 and IL-23R expression” value was “reduced”; the TH17 cell differentiation entry is on record as “inhibited”. In addition, the “therapeutic effect in CIA mice” value in data set [1] is recorded as “robust therapeutic effect”.
Consider `O=S(=O)(c1ccccc1)N(CC(F)(F)F)c1ccc(C(O)(C(F)(F)F)C(F)(F)F)cc1` [T0901317, N-(2,2,2-trifluoroethyl)-N-[4-[2,2,2-trifluoro-1-hydroxy-1-(trifluoromethyl)ethyl]phenyl]-benzenesulfonamide, reference compound], for which the “enlargement of the liver” value in data set [2] is recorded as “negative effect on liver”.
What is called IC50 is the concentration needed to halve the response being measured. Low readings indicate greater potency in that assay, high ones weaker potency in that assay. What is called EC50 is the concentration at which the effect is half-maximal. For the compound `O=C(O)Cc1cccc(OCCCN(Cc2cccc(C(F)(F)F)c2Cl)CC(c2ccccc2)c2ccccc2)c1` [GW3965, reference compound], the “activity on RORβ” value in the data set with RORβ was “lack activity”. Moreover, the “LPS induction of TREM-1 gene expression (qPCR)” value with TREM-1 [3] was “significantly repressed”. Further, the “LPS-induced TREM1 cell surface expression” value in the data set on TREM-1 [4] is “only modestly dampened”. The “enlargement of the liver” value in [2] is recorded as “did not cause enlargement of the liver”. Besides, the arthritis clinical score result in data set [2] (Day 34, 20 mg/kg i.p. twice-a-day, vehicle 13.6±2.9) was “only very modest effects”. Also, the IL17F expression result in the data set with EL4 cells is on record as “lacked the ability to repress”. The “activity on RORα” value with RORα is listed as “lack activity”. In addition, the IC50 against RORγ was 43 µM. The EC50 at LXRα stood at 0.154 µM.
